As a reminder, the pIC50 is the negative decadic logarithm of the IC50, by convention in mol/L.

One assay addresses T1, ALDH1A1 enzyme (Homo sapiens, UniProt P00352).
T1 sequence (P00352 1-501): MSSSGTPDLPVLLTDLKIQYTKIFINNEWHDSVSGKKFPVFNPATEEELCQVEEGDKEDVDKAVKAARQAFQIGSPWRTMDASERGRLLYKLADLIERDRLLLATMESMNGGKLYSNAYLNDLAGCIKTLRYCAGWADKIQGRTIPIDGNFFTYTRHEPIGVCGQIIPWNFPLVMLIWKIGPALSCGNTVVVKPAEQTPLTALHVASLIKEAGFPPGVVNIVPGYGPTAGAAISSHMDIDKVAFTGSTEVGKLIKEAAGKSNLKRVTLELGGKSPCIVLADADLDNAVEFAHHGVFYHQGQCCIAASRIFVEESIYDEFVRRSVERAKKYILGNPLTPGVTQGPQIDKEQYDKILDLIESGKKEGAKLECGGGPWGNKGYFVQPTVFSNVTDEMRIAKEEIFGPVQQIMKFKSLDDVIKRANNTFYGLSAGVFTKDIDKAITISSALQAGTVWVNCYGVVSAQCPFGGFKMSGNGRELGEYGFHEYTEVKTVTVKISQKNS
Put plainly: ALDH1A1 enzymatic assay (in vitro). The assay is classed as biochemical. The following applies: ALDH1A1 enzyme 20 nM, NAD+ 1 mM, propionaldehyde 80 μM; read-out: ALDH1A1 IC50. The essentials: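 ALDH1A1 (20 nM final) in 100 mM HEPES pH 7.5, 0.01% Tween 20 was preincubated 15 min at RT with compound (968 pM–57.2 μM final), then started with 1 mM NAD+ and 80 μM propionaldehyde. NADH fluorescence (ex 340/em 450 nm) followed kinetically for 10 min; change normalized to no-inhibitor and no-enzyme controls for percent inhibition and curve fitting.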

A further assay relates to MIA PaCa-2 cells. In words: MIA PaCa2 cell-based assay (1,536-well high-content imaging ALDEFLUOR assay). Also noted: species or system human. The following applies: Homo sapiens, 0.5 h, ALDEFLUOR BAAA substrate 500 nM, 30 minutes. The essentials: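 MIA PaCa-2 cells (1,000/well), plated overnight, given BAAA substrate (500 nM) plus Hoechst 33342 (0.5 nM), then compound (16-point, 1.4 nM–47.8 μM final; 0.5% DMSO). After 30 min at 37° C, ALDH activity imaged by high-content microscopy as BAA-retaining (FITC) cells versus Hoechst-stained nuclei.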

Molecules are shown by their SMILES. pIC50: −log10 of the molar value. Counter-ions that a name gives are not always drawn.

With `COc1ccc2c(N3CCC(C)(C#N)CC3)c(C(=O)N3CCN(S(=O)(=O)C4CC4)CC3)cnc2c1` [Example 106, 1-(3-(4-(cyclopropylsulfonyl)piperazine-1-carbonyl)-7-methoxyquinolin-4-yl)-4-methylpiperidine-4-carbonitrile], the pIC50 on ALDH1A1 enzyme is above 6.30; in the assay on MIA PaCa-2 cells, 5.00 to 6.00.

With `O=C(C1CC1)C1CCN(C(=O)c2cnc3c(F)cc(F)cc3c2N2CCC3(CC2)OCCO3)CC1` [Example 192, (4-(cyclopropanecarbonyl)piperidin-1-yl)(6,8-difluoro-4-(1,4-dioxa-8-azaspiro[4.5]decan-8-yl)quinolin-3-yl)methanone], the pIC50 is above 6.30 at ALDH1A1 enzyme and 6.00 to 6.30 with MIA PaCa-2 cells.

As for `CCNC(=O)N1CCN(C(=O)c2cnc3ccc(Cl)cc3c2N2CCC(C)(C#N)CC2)CC1` [Example 121, 4-(6-chloro-4-(4-cyano-4-methylpiperidin-1-yl)quinoline-3-carbonyl)-N-ethylpiperazine-1-carboxamide], the pIC50 was above 6.30 at ALDH1A1 enzyme and 5.00 to 6.00 in the assay on MIA PaCa-2 cells.

Turning to `CCNC(=O)N1CCN(C(=O)c2cnc3c(F)c(F)c(F)cc3c2N2CCC3(CC2)OCCO3)CC1` [Example 144, N-ethyl-4-(6,7,8-trifluoro-4-(1,4-dioxa-8-azaspiro[4.5]decan-8-yl)quinoline-3-carbonyl)piperazine-1-carboxamide], the pIC50 on ALDH1A1 enzyme was above 6.30; in the assay on MIA PaCa-2 cells, 5.00 to 6.00.

Turning to `CS(=O)(=O)C1CCN(C(=O)c2cnc3ccsc3c2-c2ccc(C3(C#N)CC3)cc2)CC1` [Example 283], the pIC50 on ALDH1A1 enzyme and with MIA PaCa-2 cells was above 6.30 each time.

With `C[C@@H]1CN(S(C)(=O)=O)CCN1C(=O)c1cnc2ccc(F)cc2c1N1CCC(C)(C#N)CC1` [Example 241, (R)-1-(6-fluoro-3-(2-methyl-4-(methylsulfonyl)piperazine-1-carbonyl)quinolin-4-yl)-4-methylpiperidine-4-carbonitrile], the values for the pIC50 on ALDH1A1 enzyme and in the assay with MIA PaCa-2 cells were 5.00 to 6.00 and below 5.00, respectively.

On to `CCNC(=O)N1CCN(C(=O)c2cnc3ccc(OC)cc3c2N2CCC3(CC2)OCCO3)CC1` [Example 43, N-ethyl-4-(6-methoxy-4-(1,4-dioxa-8-azaspiro[4.5]decan-8-yl)quinoline-3-carbonyl)piperazine-1-carboxamide], for which the pIC50 at ALDH1A1 enzyme is above 6.30; with MIA PaCa-2 cells, 5.00 to 6.00.

In the case of `CS(=O)(=O)N1CCN(C(=O)c2cnc3ccc(F)cc3c2N2CCN(C(=O)/C(C#N)=C/C3CC3)CC2)CC1` [Example 222, (e)-3-cyclopropyl-2-(4-(6-fluoro-3-(4-(methylsulfonyl)piperazine-1-carbonyl)quinolin-4-yl)piperazine-1-carbonyl)acrylonitrile], the negative logarithm of the IC50 (pIC50) at ALDH1A1 enzyme is above 6.30; in the assay with MIA PaCa-2 cells, below 5.00.

Take `CCNC(=O)N1CCN(C(=O)c2cnc3c(F)c(F)c(F)cc3c2N2CCC(C)(C#N)CC2)CC1` [Example 148, 4-(4-(4-cyano-4-methylpiperidin-1-yl)-6,7,8-trifluoroquinoline-3-carbonyl)-N-ethylpiperazine-1-carboxamide]: the pIC50 at ALDH1A1 enzyme and in the assay with MIA PaCa-2 cells was 5.00 to 6.00 each time.

With `O=C(c1cnc2c(F)cc(F)cc2c1N1CCC2(CC1)OCCO2)N1CCN(S(=O)(=O)N2CCCC2)CC1` [Example 163, (6,8-difluoro-4-(1,4-dioxa-8-azaspiro[4.5]decan-8-yl)quinolin-3-yl)(4-(pyrrolidin-1-ylsulfonyl)piperazin-1-yl)methanone], the pIC50 at ALDH1A1 enzyme is above 6.30; in the assay on MIA PaCa-2 cells, below 5.00.

For `CN(C)S(=O)(=O)N1CCN(C(=O)c2cnc3ccsc3c2N2CCC(C#N)(c3ccccc3)CC2)CC1` [Example 287, 4-(7-(4-cyano-4-phenylpiperidin-1-yl)thieno[3,2-b]pyridine-6-carbonyl)-N,N-dimethylpiperazine-1-sulfonamide], the pIC50 at ALDH1A1 enzyme and with MIA PaCa-2 cells was above 6.30 each time.

Take `CS(=O)(=O)N1CCN(C(=O)c2cnc3c(F)c(F)c(F)cc3c2N2CCC3(CC2)OCCO3)CC1` [Example 134, (4-(methylsulfonyl)piperazin-1-yl)(6,7,8-trifluoro-4-(1,4-dioxa-8-azaspiro[4.5]decan-8-yl)quinolin-3-yl)methanone]: the pIC50 on ALDH1A1 enzyme was above 6.30; in the assay on MIA PaCa-2 cells, 5.00 to 6.00.

For `CC(O)C1(c2ccccc2)CCN(c2c(C(=O)N3CCN(S(C)(=O)=O)CC3)cnc3ccc(F)cc23)CC1` (centres unmarked) [Example 253, (6-fluoro-4-(4-(1-hydroxyethyl)-4-phenylpiperidin-1-yl)quinolin-3-yl)(4-(methylsulfonyl)piperazin-1-yl)methanone], the pIC50 on ALDH1A1 enzyme is above 6.30; with MIA PaCa-2 cells, below 5.00.

Turning to `CS(=O)(=O)N1CCN(C(=O)c2cnc3ccc(F)cc3c2N2CCC(C#N)(c3cccs3)CC2)CC1` [Cpd. 356, 1-(6-fluoro-3-(4-(methylsulfonyl)piperazine-1-carbonyl)quinolin-4-yl)-4-(thiophen-2-yl)piperidine-4-carbonitrile], the pIC50 at ALDH1A1 enzyme and with MIA PaCa-2 cells was above 6.30 in each case.

On to `O=C1CC2(CCN(c3c(C(=O)N4CCN(C(=O)C5CC5)CC4)cnc4ccc(F)cc34)CC2)c2ccccc21` [Example 203, 1′-(3-(4-(cyclopropanecarbonyl)piperazine-1-carbonyl)-6-fluoroquinolin-4-yl)spiro[indene-1,4′-piperidin]-3(2H)-one], for which the pIC50 on ALDH1A1 enzyme and in the assay on MIA PaCa-2 cells was 5.00 to 6.00 in each case.

Turning to `CN(C)C(=O)N1CCN(C(=O)c2cnc3ccc(F)cc3c2N2CCC3(CC2)OCCO3)CC1` [Example 179, 4-(6-fluoro-4-(1,4-dioxa-8-azaspiro[4.5]decan-8-yl)quinoline-3-carbonyl)-N,N-dimethylpiperazine-1-carboxamide], the figures for the pIC50 at ALDH1A1 enzyme and with MIA PaCa-2 cells were above 6.30 and 6.00 to 6.30, respectively.

In the case of `N#CC1(c2ccccc2)CCN(c2c(C(=O)N3CCC(O)CC3)cnc3ccc(F)cc23)CC1` [Cpd. 331, 1-(6-fluoro-3-(4-hydroxypiperidine-1-carbonyl)quinolin-4-yl)-4-phenylpiperidine-4-carbonitrile], the pIC50 on ALDH1A1 enzyme is above 6.30; in the assay on MIA PaCa-2 cells it was 6.00 to 6.30.

Regarding `COc1ccc2ncc(C(=O)N3CCN(C(=O)C4CC4)CC3)c(N3CCC(C)(OC)CC3)c2c1` [Example 26, (4-(cyclopropanecarbonyl)piperazin-1-yl)(6-methoxy-4-(4-methoxy-4-methylpiperidin-1-yl)quinolin-3-yl)methanone], the results for the pIC50 on ALDH1A1 enzyme and in the assay on MIA PaCa-2 cells were above 6.30 and below 5.00, respectively.

Turning to `N#CC1(c2ccccc2)CCN(c2c(C(=O)N3CCC(O)(C4CC4)CC3)cnc3ccc(F)cc23)CC1` [Cpd. 348, 1-(3-(4-cyclopropyl-4-hydroxypiperidine-1-carbonyl)-6-fluoroquinolin-4-yl)-4-phenylpiperidine-4-carbonitrile], the pIC50 on ALDH1A1 enzyme and in the assay on MIA PaCa-2 cells was above 6.30 in each case.

With `CCNC(=O)N1CCN(C(=O)c2cnc3cc(OC)c(OC)cc3c2N2CCC(C)(C#N)CC2)CC1` [Example 115, 4-(4-(4-cyano-4-methylpiperidin-1-yl)-6,7-dimethoxyquinoline-3-carbonyl)-N-ethylpiperazine-1-carboxamide], the pIC50 is above 6.30 on ALDH1A1 enzyme and below 5.00 in the assay with MIA PaCa-2 cells.

`CC1(C#N)CCN(c2c(C(=O)N3CCC(C(=O)C4CC4)CC3)cnc3cc(F)c(F)cc23)CC1` [Example 196, 1-(3-(4-(cyclopropanecareonyl)piperidine-1-carbonyl)-6,7-difluoroquinolin-4-yl)-4-methylpiperidine-4-carbonitrile]: the pIC50 at ALDH1A1 enzyme was above 6.30; in the assay on MIA PaCa-2 cells, 5.00 to 6.00.

For `COc1ccc2ncc(C(=O)N3CCN(C(=O)C4CC4)CC3)c(N3CCC4(CCCC4)CC3)c2c1` [Example 17, (4-(cyclopropanecarbonyl)piperazin-1-yl)(6-methoxy-4-(8-azaspiro[4.5]decan-8-yl)quinolin-3-yl)methanone, TFA], the pIC50 on ALDH1A1 enzyme is above 6.30; in the assay with MIA PaCa-2 cells, 5.00 to 6.00.

For `O=C(c1cnc2c(F)c(F)c(F)cc2c1N1CCC2(CC1)OCCO2)N1CCN(C(=O)C2CC2)CC1` [Example 124, (4-(cyclopropanecarbonyl)piperazin-1-yl)(6,7,8-trifluoro-4-(1,4-dioxa-8-azaspiro[4.5]decan-8-yl)quinolin-3-yl)methanone], the pIC50 is above 6.30 on ALDH1A1 enzyme and 5.00 to 6.00 with MIA PaCa-2 cells.

For `CN(C)S(=O)(=O)N1CCN(C(=O)c2cnc3ccc(F)cc3c2N2CCC3(CC2)OCCO3)CC1` [Example 152, 4-(6-fluoro-4-(1,4-dioxa-8-azaspiro[4.5]decan-8-yl)quinoline-3-carbonyl)-N,N-dimethylpiperazine-1-sulfonamide], the pIC50 on ALDH1A1 enzyme is above 6.30; with MIA PaCa-2 cells it was 6.00 to 6.30.

Consider `CC1(C#N)CCN(c2c(C(=O)N3CCN(C(=O)C4CC4)CC3)cnc3ccccc23)CC1` [Example 93, 1-(3-(4-(cyclopropanecarbonyl)piperazine-1-carbonyl)quinolin-4-yl)-4-methylpiperidine-4-carbonitrile], for which the pIC50 at ALDH1A1 enzyme is above 6.30; in the assay on MIA PaCa-2 cells, 5.00 to 6.00.

For the origin of these results see patent publication US11795177B2, “Substituted quinoline analogs as aldehyde dehydrogenase 1A1 (ALDH1A1) inhibitors” (THE UNITED STATES OF AMERICA, AS REPRESENTED BY THE …, priority 2017, dated 2023).
